Test results from patent US6818391B2, “Glutamate transporters” (The Regents of the University of California, priority 2000, dated 2004).
“Also recorded” adds a separate entry of the source. Blank lines part the entries; values can stand above or below the molecule they belong to.

Legend:
BNPI (VGLUT1) = target: T1, BNPI (VGLUT1) (Rattus norvegicus, UniProt Q62634); assay: 3H-glutamate uptake by membranes from PC12 cells expressing BNPI; assay type: biochemical; conditions: for inhibition of 3H-glutamate uptake by membranes expressing BNPI: uptake at 5 min; for effect on 3H-glutamate uptake by BNPI membranes: membranes preloaded with 4 mM KCl
T1 construct: expressed in transfected cells; light membranes prepared from them
T1 sequence (Q62634 1-560): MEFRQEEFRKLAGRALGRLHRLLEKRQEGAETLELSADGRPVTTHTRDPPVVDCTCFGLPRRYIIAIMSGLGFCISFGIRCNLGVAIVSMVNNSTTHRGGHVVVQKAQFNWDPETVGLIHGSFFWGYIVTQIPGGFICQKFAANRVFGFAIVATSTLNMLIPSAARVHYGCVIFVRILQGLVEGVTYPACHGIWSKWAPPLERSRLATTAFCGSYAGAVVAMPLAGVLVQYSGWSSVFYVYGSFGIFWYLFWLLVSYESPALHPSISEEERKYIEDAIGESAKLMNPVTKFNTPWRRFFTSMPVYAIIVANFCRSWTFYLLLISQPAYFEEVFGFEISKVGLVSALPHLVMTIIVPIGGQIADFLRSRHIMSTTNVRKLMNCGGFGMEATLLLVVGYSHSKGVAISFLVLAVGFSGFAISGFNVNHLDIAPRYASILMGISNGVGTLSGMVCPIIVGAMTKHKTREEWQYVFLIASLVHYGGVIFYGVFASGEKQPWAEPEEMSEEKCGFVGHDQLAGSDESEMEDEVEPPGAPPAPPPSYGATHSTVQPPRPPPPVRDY
Description: Rather, the type I transporter NaPi-1 transports organic anions, including phenol red and penicillin G, with substantially higher apparent affinity than Pi (Busch et al. (1996) Proc. Natl. Acad. Sci., USA, 93: 5347). Human genetic studies have shown that mutations in another protein closely related to BNPI and NaPi-1 account for disorders of sialic acid storage (Verheijen et al. (1999) Nature Genet. 23: 462). In these conditions, sialic acid accumulates in lysosomes because of a defect in proton-driven export (Renlund et al. (1986) Science 232: 759; Mancini et al. (1989) J. Biol. Chem. 264: 15247; Tietze et al. (1989) J. Biol. Chem. 264: 15316; Mancini et al. (1992) Proc. Natl. Acad. Sci., USA, 89: 6609). […] To determine whether BNPI mediates the transport of glutamate into synaptic vesicles, we transfected the rat BNPI cDNA into rat pheochromocytoma PC12 cells, which lack detectable endogenous BNPI protein. The rat BNPI cDNA was stably expressed in PC12 cells, and immunofluorescence for BNPI was used to identify the most highly expressing cell clones. Membranes were prepared by homogenizing the washed cells in SH buffer [0.32 M sucrose and 10 mM Hepes-KOH (pH 7.4)] containing protease inhibitors and by pelleting the nuclei at 1000 g for 5 min and the heavier membranes at 27,000 g for 35 min. The supernatant containing lighter membranes was then pelleted at 210,000 g for 1 hour and resuspended in SH buffer with protease inhibitors at a final concentration of ˜10 μg protein/μl.
We then prepared a population of light membranes, including synaptic-like microvesicles, from the transfected and untransfected cells (McIntire et al. (1997) Nature 389: 870) and tested their ability to accumulate 3H-glutamate in the presence of 4 mM chloride and ATP, conditions that optimize glutamate accumulation by native synaptic vesicles (Maycox et al. (1988) J. Biol. Chem., 263: 15423; Carlson et al. […] J. Biol. Chem. 264: 7369). To initiate the transport reaction, we added 10 μl of membranes to 190 μl of SH buffer containing 4 mM KCl, 4 mM MgSO4, 4 mM ATP, and 50 μM 3H-glutamate, with other additions noted in the text and figure legends. The reaction mixture was incubated at 29° C. for varying times, and the uptake was terminated by rapid filtration, followed by immediate washes with 6 ml of cold 0.155 M potassium tartrate and 10 mM Hepes (pH 7.4). Background uptake was determined using membranes prepared from untransfected cells that were incubated for the same amount of time at the same temperature. Transport measurements were performed in duplicate with at least two different preparations of membranes. The Km was calculated by averaging the results of two separate determinations.

DNPI/VGLUT2 = target: T2, DNPI/VGLUT2 (Rattus norvegicus, UniProt Q9JI12); assay: 3H-L-glutamate uptake by membranes from PC12 cells expressing DNPI/VGLUT2; assay type: biochemical; conditions: for inhibition of DNPI-mediated 3H-L-glutamate uptake: uptake at 5 minutes; for effect on 3H-glutamate uptake by DNPI membranes: preloaded 4 mM KCl, 5 minutes
T2 construct: To reconstruct the full open reading frame, the missing segment was amplified from rat brain cDNA by PCR; expressed in transfected cells; light membranes prepared from them
T2 sequence (Q9JI12 1-582): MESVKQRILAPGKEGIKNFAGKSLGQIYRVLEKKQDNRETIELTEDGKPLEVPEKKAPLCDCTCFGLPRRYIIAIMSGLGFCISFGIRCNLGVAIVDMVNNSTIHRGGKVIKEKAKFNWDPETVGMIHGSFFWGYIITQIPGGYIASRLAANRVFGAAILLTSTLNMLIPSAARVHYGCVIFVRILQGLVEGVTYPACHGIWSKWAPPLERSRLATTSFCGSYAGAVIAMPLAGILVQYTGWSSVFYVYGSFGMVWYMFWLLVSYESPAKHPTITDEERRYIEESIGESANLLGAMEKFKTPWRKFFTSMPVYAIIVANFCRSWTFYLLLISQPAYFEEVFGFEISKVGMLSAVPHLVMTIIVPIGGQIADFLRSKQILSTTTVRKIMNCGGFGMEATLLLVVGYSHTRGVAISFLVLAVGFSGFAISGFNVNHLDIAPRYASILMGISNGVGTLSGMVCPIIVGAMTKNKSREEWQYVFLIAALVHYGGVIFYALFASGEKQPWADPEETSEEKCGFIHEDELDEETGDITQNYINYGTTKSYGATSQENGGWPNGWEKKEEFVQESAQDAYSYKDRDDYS
Procedure: PC12 cells were grown in Dulbecco's modified Eagle's medium containing 10% equine serum, 5% calf serum and transfected by electroporation with the rat DNPI/VGLUT2 cDNA subcloned in the pcDNA3 vector containing an […] (Krantz et al. (2000) J. Cell Biol. 149). Stable transformants were selected for resistance to the neomycin analog G418 (500 μg/ml) and screened by immunofluorescence with the DNPI antibody, resulting in the identification of two independent clones with more than 80% of the cells expressing DNPI.
For membrane preparation, untransfected and DNPI-expressing PC12 cells were grown on 15 cm plates, washed with calcium- and magnesium-free PBS, collected in 0.32 M sucrose/10 mM HEPES-KOH, pH 7.4 (SH buffer) containing protease inhibitors (2 μg/ml leupeptin, 1 μg/ml pepstatin, 1 μg/ml E64, 0.2 mM diisopropylfluorphosphate, 2 μg/ml aprotinin, and 1.25 mM MgEGTA), homogenized using a ball bearing device and the homogenate sedimented at 1000 g for 5 min to remove nuclei and debris. The supernatant was then sedimented at 27,000 g for 35 min to remove heavier membranes. The remaining light membranes including small synaptic-like microvesicles were then sedimented at 210,000 g for 1 hour. The pellet was resuspended in SH buffer with protease inhibitors at ˜10 mg protein/ml.
To initiate the transport reaction, 20 μl membranes (˜200 μg protein) were added to 180 μl SH buffer containing 4 mM KCl, 4 mM MgSO4, […], and 100 μM ^3H-L-glutamate, with other additions noted in the text and figure legends. The reaction mixture was incubated at 29° C. for varying intervals, uptake was terminated by rapid filtration through Supor-200 membranes (Gelman) and the filters were washed rapidly four times with 1.5 ml cold 0.155 M potassium tartrate/10 mm HEPES-KOH, pH 7.4 before measuring the bound radioactivity by scintillation counting in 3 ml Cytoscint (ICN). Uptake specifically mediated by DNPI/VGLUT2 was determined by subtracting the background uptake of untransfected cell membranes from the uptake by transfected cell membranes. To examine the chloride dependence of transport, varying proportions of 0.14 M K gluconate and 0.14 M KCl were mixed in the standard reaction buffer (without sucrose) to vary the chloride concentration and maintain constant osmolarity. The ionophores nigericin and valinomycin used in FIG. 13E were prepared as 200× stock solutions in ethanol. The final ethanol concentration in the reaction mixture was 1%.

synaptic vesicles = conditions: cited from earlier work
[1] = tested on: untransfected PC12 cell membranes; assay: background 3H-glutamate uptake by membranes from untransfected PC12 cells; assay type: biochemical, rat; conditions: uptake at 5 min
Procedure: To initiate the transport reaction, we added 10 μl of membranes to 190 μl of SH buffer containing 4 mM KCl, 4 mM MgSO4, 4 mM ATP, and 50 μM 3H-glutamate, with other additions noted in the text and figure legends. […] Background uptake was determined using membranes prepared from untransfected cells that were incubated for the same amount of time at the same temperature. Transport measurements were performed in duplicate with at least two different preparations of membranes. The Km was calculated by averaging the results of two separate determinations.

Structure (SMILES): N[C@H](CCC(=O)O)C(=O)O [D-Glutamate]
inhibition of 3H-glutamate uptake by membranes expressing BNPI (BNPI (VGLUT1); 10 mM): partially inhibits | inhibition of DNPI-mediated 3H-L-glutamate uptake (DNPI/VGLUT2; 10 mM): significantly inhibit | inhibition of DNPI-mediated 3H-L-glutamate uptake (DNPI/VGLUT2; 10 mM, listed as D-glutamate): inhibit uptake

Structure (SMILES): N[C@H](CC(=O)O)C(=O)O [D-aspartate]
inhibition of DNPI-mediated 3H-L-glutamate uptake (DNPI/VGLUT2; 10 mM): not

inhibition of DNPI-mediated 3H-L-glutamate uptake (DNPI/VGLUT2; 10 mM): not
Structure (SMILES): NCC(=O)O [glycine]

inhibition of 3H-glutamate uptake by membranes expressing BNPI (BNPI (VGLUT1); 1 μM DIDS): blocks transport only partly | inhibition at 1 µM (BNPI (VGLUT1); 1 μM DIDS, read-out: inhibition of 3H-glutamate transport mediated by BNPI): ~60%
Structure (SMILES): O=S(=O)(O)c1cc(N=C=S)ccc1C=Cc1ccc(N=C=S)cc1S(=O)(=O)O [DIDS, 4,4′-diisothiocyanatostilbene-2,2′-disulfonic acid]
IC50 (synaptic vesicles; read-out: median inhibitory concentration, glutamate transport by synaptic vesicles): ~700 nM

inhibition of DNPI-mediated 3H-L-glutamate uptake (DNPI/VGLUT2; 10 mM): not
Structure (SMILES): NCCCC(=O)O [GABA, γ-aminobutyric acid]

inhibition of 3H-glutamate uptake by membranes expressing BNPI (BNPI (VGLUT1); 10 mM): had no effect and not
Structure (SMILES): NC(=O)CC[C@H](N)C(=O)O [L-glutamine]

inhibition of 3H-L-glutamate uptake by DNPI (DNPI/VGLUT2; Pi, data not shown): does not
Structure (SMILES): O=P(O)(O)O [Pi, inorganic phosphate]
inhibition of 3H-glutamate uptake by membranes expressing BNPI (BNPI (VGLUT1); 10 mM): did not inhibit; also recorded: has little effect

Structure (SMILES): CO[C@@H]1C[C@@H](C[C@H]2CC[C@H](C)[C@H]([C@@H](C)C(=O)O)O2)O[C@]2(O[C@](C)([C@H]3CC[C@@](C)([C@@H]4O[C@@H]([C@H]5O[C@@](O)(CO)[C@H](C)C[C@@H]5C)C[C@@H]4C)O3)C[C@H]2C)[C@@H]1C [nigericin]
effect on 3H-glutamate uptake by BNPI membranes (BNPI (VGLUT1); nigericin 5 μM): increases the uptake | effect on 3H-glutamate uptake by DNPI membranes (DNPI/VGLUT2; 5 μM nigericin): did not significantly reduce transport

Structure (SMILES): CC(C)[C@@H]1NC(=O)[C@H](C)OC(=O)[C@@H](C(C)C)NC(=O)[C@@H](C(C)C)OC(=O)[C@H](C(C)C)NC(=O)[C@H](C)OC(=O)[C@@H](C(C)C)NC(=O)[C@@H](C(C)C)OC(=O)[C@H](C(C)C)NC(=O)[C@H](C)OC(=O)[C@@H](C(C)C)NC(=O)[C@@H](C(C)C)OC1=O [valinomycin]
effect on 3H-glutamate uptake by BNPI membranes (BNPI (VGLUT1); valinomycin 20 μM): substantially reduces glutamate uptake | effect on 3H-glutamate uptake by DNPI membranes (DNPI/VGLUT2; 20 μM valinomycin): inhibits

Structure (SMILES): Cc1cc(-c2ccc(/N=N/c3ccc4c(S(=O)(=O)O)cc(S(=O)(=O)O)c(N)c4c3O)c(C)c2)ccc1/N=N/c1ccc2c(S(=O)(=O)O)cc(S(=O)(=O)O)c(N)c2c1O [Evans blue]
inhibition of 3H-glutamate uptake by membranes expressing BNPI (BNPI (VGLUT1); Evans blue 5 μM (low micromolar)): inhibited the transport; also recorded: inhibits BNPI activity dramatically | effect on background glutamate uptake by untransfected cell membranes [1]: had little effect | inhibition of glutamate transport into synaptic vesicles (synaptic vesicles; low micromolar concentrations): inhibited the transport | inhibition of DNPI-mediated 3H-L-glutamate uptake (DNPI/VGLUT2; Evans Blue 4.5 μM): inhibit uptake; also recorded: significantly inhibit
